From ChEMBL document CHEMBL1201862, “PubChem BioAssay data set” (2004)
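Growth conditions: 96-well plates. Treatment: test compound, 48 hours, 5 concentrations. Analysis: linear interpolation between bracketing concentrations; unreached endpoints set to highest concentration. At the GI50, growth is halved.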 The source made the active and inactive calls. Cut-off read from the data, not from the text of the source: active = GI50 up to about 1.1 µM and inactive = higher.

How the values were obtained:
Test in all cases: growth of human tumour cells (NCI), 48 h
SK-MEL-2 = test system: SK-MEL-2
SW-620 = test system: SW-620
HT-29 = test system: HT-29
SF-539 = test system: SF-539
HCT-116 = test system: HCT-116
MDA-N = test system: MDA-N
NCI-H460 = test system: NCI-H460
HOP-62 = test system: HOP-62
SF-295 = test system: SF-295
SNB-19 = test system: SNB-19
ACHN = test system: ACHN
HCT-15 = test system: HCT-15
RPMI-8226 = test system: RPMI-8226
U-251 = test system: U-251
K562 = test system: K562
CCRF-CEM = test system: CCRF-CEM
NCI-H226 = test system: NCI-H226
SN12C = test system: SN12C
SK-MEL-28 = test system: SK-MEL-28
COLO 205 = test system: COLO 205
SK-MEL-5 = test system: SK-MEL-5
UACC-62 = test system: UACC-62
OVCAR-5 = test system: OVCAR-5
EKVX = test system: EKVX
M14 = test system: M14
A498 = test system: A498
SF-268 = test system: SF-268
MOLT-4 = test system: MOLT-4
OVCAR-8 = test system: OVCAR-8
SNB-75 = test system: SNB-75
RXF 393 = test system: RXF 393
T47D = test system: T47D
NCI-H23 = test system: NCI-H23
OVCAR-3 = test system: OVCAR-3
HL-60 = test system: HL-60
MDA-MB-435 = test system: MDA-MB-435
LOX IMVI = test system: LOX IMVI
TK-10 = test system: TK-10
CAKI-1 = test system: CAKI-1
PC-3 = test system: PC-3
OVCAR-4 = test system: OVCAR-4
KM12 = test system: KM12
MDA-MB-231 = test system: MDA-MB-231
786-0 = test system: 786-0
NCI/ADR-RES = test system: NCI/ADR-RES
BT-549 = test system: BT-549
UACC-257 = test system: UACC-257
MCF7 = test system: MCF7
IGROV-1 = test system: IGROV-1
A549 = test system: A549
NCI-H522 = test system: NCI-H522
DU-145 = test system: DU-145
Hs-578T = test system: Hs-578T
SK-OV-3 = test system: SK-OV-3

Measured: GI50

CCOP(=O)(/C=C/n1cnc2c(=O)n(C(C)=O)c(N)nc21)OCC
inactive: SK-MEL-2 > 100 µM | SW-620 > 100 µM | HT-29 > 100 µM | SF-539 > 100 µM | HCT-116 > 100 µM | MDA-N > 100 µM | NCI-H460 > 100 µM | HOP-62 > 100 µM | SF-295 > 100 µM | SNB-19 > 100 µM | ACHN > 100 µM | RPMI-8226 > 100 µM | U-251 > 100 µM | K562 > 100 µM | CCRF-CEM > 100 µM | NCI-H226 70.3 µM | SN12C > 100 µM | SK-MEL-28 > 100 µM | COLO 205 > 100 µM | SK-MEL-5 > 100 µM | UACC-62 > 100 µM | OVCAR-5 > 100 µM | EKVX > 100 µM | M14 > 100 µM | A498 > 100 µM | SF-268 > 100 µM | MOLT-4 > 100 µM | OVCAR-8 > 100 µM | SNB-75 > 100 µM | RXF 393 > 100 µM | T47D > 100 µM | NCI-H23 > 100 µM | OVCAR-3 > 100 µM | HL-60 > 100 µM | MDA-MB-435 > 100 µM | LOX IMVI > 100 µM | TK-10 > 100 µM | CAKI-1 > 100 µM | PC-3 > 100 µM | OVCAR-4 > 100 µM | KM12 > 100 µM | MDA-MB-231 > 100 µM | 786-0 > 100 µM | NCI/ADR-RES > 100 µM | BT-549 > 100 µM | UACC-257 > 100 µM | MCF7 > 100 µM | IGROV-1 > 100 µM | A549 > 100 µM | NCI-H522 67.9 µM | DU-145 > 100 µM | Hs-578T > 100 µM | SK-OV-3 > 100 µM
> 100 µM: HCT-15
